Experimental data taken from US12642796B2, “Method and device of treating chronic kidney disease-associated pruritus” (Avior, Inc., priority 2018, dated 2026).
“And” between values parts separate entries of the source, which are not always exact repeats. Equal values may be shown once.

Key:
Assay type in all cases: in vivo, mouse
C57BL/6 mice [1] = test: Dose escalation of SP, mean scratch count (Example 4)
Procedure: The SP dose administered to male C57BL/6 mice was escalated and itching was recorded for analysis. Group 13 (N=8) received ID injection of 135 μg SP on the right side of the rostral back. Group 14 (N=8) received ID injection of 233 μg SP on the right side of the rostral back. At T0-60, immediately following dose administration, a camera began recording to monitor itching behavior. At T60, the final itching assessment was completed, camera recording ended, and the study was concluded.
The recordings were reviewed to calculate itching behavior. Two research associates reviewed the recordings and counted the number of scratches for each mouse during the 60-minute collection time. The mean of the two observations were recorded as the number of scratches per 60 minutes.
The scratching over time was observed per 10 minute time period for each animal tested. The data is set forth below in Table 6 and is shown graphically in FIG. 6.

C57BL mice [2] = test: Intradermal injection of SP in mice, scratching behavior at the injection site (Example 1)
From the text: The method of treatment of pruritus was established using C57BL mice where substance P (SP) induced pruritus was created to induce the disease state.
Healthy male C57BL/6 mice ˜6-8 weeks of age and ranging from 21.2 to 26.8 grams in weight at study initiation were used in the Examples. The mice were acclimated for a minimum of 5 days prior to the beginning of the study. The mice were identified by tail mark and cage label. The study was not blinded. Mice were fed species-specific food, and food and water were supplied ad libitum to the animals.
Male C57BL mice were given an intradermal (ID) injection of 0.0168 μg of SP (N=4, Group 1) or PBS (N=2, Group 2) on either the right side only or on both sides. Scratching behavior at the injection site was monitored for 30 minutes from time of injection by two separate observers.
The original dose of 0.0168 μg SP (Group 1) was compared to a higher dose of 33.7 μg SP (N=4, Group 3). […] It was therefore concluded that the scratching behavior was a direct response to the presence and amount of SP.

C57BL mice [3] = test: SP injection, scratches Groups 7-9, 0-30 minutes (Example 3)
Procedure: […] […] Group 9 (N=4) received SP in PBS at a dose of 0.5 mM/50 μL. Various scratching behavior was video recorded and assessed.
Group 7: All mice were placed in a clear cylindrical enclosure 30 minutes prior to testing to acclimate. An ID bolus injection of SP in sodium acetate was administered.
Groups 8 and 9: All mice were placed in a clear cylindrical enclosure 30 minutes prior to testing to acclimate. An ID bolus injection of SP in PBS was administered. Recording began immediately following injection of SP and recorded for 30 minutes.
Animals in Groups 7-9 were acclimated for […] prior to recording. Behavioral recording lasted for 30 minutes (T0-T30).
The number of scratches per 0-30 minutes for Groups 7-9 is given below in Table 2. The numbers for Groups 7 and 8 were averaged together.

C57BL/6 mice [4] = test: SP and nalmefene injection, scratches Groups 10-12, 0-60 minutes (Example 3)
Procedure: Fifteen male C57BL/6 mice received a single intradermal (ID) bolus injection of substance P (SP) or PBS. Group 10 (N=6) received a single 50 μL injection of PBS. Group 11 (N=4) received SP in PBS at a dose of 0.5 mM/50 μl. […] Scratching behavior was video recorded and assessed.
Groups 10 and 11: All mice were placed in a clear cylindrical enclosure 60 minutes prior to testing to acclimate. An ID bolus injection of SP in PBS was administered. Recording began immediately following injection of SP and recorded for 60 minutes.
Group 12: All mice were placed in clear cylinder enclosures for 60 minutes prior to testing to acclimate. A SC bolus injection of nalmefene was administered. 30 minutes after the nalmefene injection, an ID bolus injection of SP in PBS was administered. Recording began immediately following injection of SP and recorded for 60 minutes.
Animals in Groups 10-12 were acclimated for 1 hour prior to recording. Behavioral recording lasted for 60 minutes (T0-T60). 6 animals were dosed for Group 12 but only 5 animals were tested due to one animal being excluded as an outlier due to no response to SP injection.
The number of scratches per 10-minute time interval for Groups 10-12 is given below in Table 3. The data is also shown graphically in FIG. 4.
The number of scratches per 0-30 minute and 30-60 minute time intervals is given below in Table 4 for Group 10 (PBS), Group 11 (0.5 mM SP), and Group 12 (0.75 mg nalmefene). The data is also shown graphically in FIG. 5.

[5] = Group 13, 135 μg SP ID, 0-10 min
[6] = Group 13, 135 μg SP ID, 10-20 min
[7] = Group 13, 135 μg SP ID, 20-30 min
[8] = Group 13, 135 μg SP ID, 30-40 min
[9] = Group 13, 135 μg SP ID, 40-50 min
[10] = Group 13, 135 μg SP ID, 50-60 min
[11] = Group 14, 233 μg SP ID, 0-10 min
[12] = Group 14, 233 μg SP ID, 10-20 min
[13] = Group 14, 233 μg SP ID, 20-30 min
[14] = Group 14, 233 μg SP ID, 30-40 min
[15] = Group 14, 233 μg SP ID, 40-50 min
[16] = Group 14, 233 μg SP ID, 50-60 min
[17] = 250 mM SP ID, Groups 7 and 8 averaged together
[18] = Group 11, SP 0.5 mM/50 μL ID, 0-10 min
[19] = Group 11, SP 0.5 mM/50 μL ID, 10-20 min
[20] = Group 11, SP 0.5 mM/50 μL ID, 20-30 min
[21] = Group 11, SP 0.5 mM/50 μL ID, 30-40 min
[22] = Group 11, SP 0.5 mM/50 μL ID, 40-50 min
[23] = Group 11, SP 0.5 mM/50 μL ID, 50-60 min

SP: neuropeptide that plays a role in the induction and maintenance of pruritus; injected intradermally to induce scratching
Mean Scratch Count, Avg. (C57BL/6 mice [1]; [5]): 56.75 | Mean Scratch Count, individual animals (C57BL/6 mice [1]; [5]): 127 and 58 and 5.5 and 22 and 57 and 21.5 and 91 and 72 | Mean Scratch Count, Avg. (C57BL/6 mice [1]; [6]): 26.44 | Mean Scratch Count, individual animals (C57BL/6 mice [1]; [6]): 53.5 and 41.5 and 0 and 7 and 36 and 23 and 41 and 9.5 | Mean Scratch Count, Avg. (C57BL/6 mice [1]; [7]): 8.88 | Mean Scratch Count, individual animals (C57BL/6 mice [1]; [7]): 0 (2×) and 4 and 7 and 2 and 12.5 and 22.5 and 23 | Mean Scratch Count, Avg. (C57BL/6 mice [1]; [8]): 3.69 | Mean Scratch Count, individual animals (C57BL/6 mice [1]; [8]): 0 (4×) and 15 and 0.5 and 12 and 2 | Mean Scratch Count, Avg. (C57BL/6 mice [1]; [9]): 1.06 | Mean Scratch Count, individual animals (C57BL/6 mice [1]; [9]): 0 (6×) and 5 and 3.5 | Mean Scratch Count, Avg. (C57BL/6 mice [1]; [10]): 0.31 | Mean Scratch Count, individual animals (C57BL/6 mice [1]; [10]): 0 (6×) and 2 and 0.5 | Mean Scratch Count, Avg. (C57BL/6 mice [1]; [11]): 89.88 | Mean Scratch Count, individual animals (C57BL/6 mice [1]; [11]): 123 and 131.5 and 108 and 85.5 and 8 and 33 and 145 and 85 | Mean Scratch Count, Avg. (C57BL/6 mice [1]; [12]): 30.06 | Mean Scratch Count, individual animals (C57BL/6 mice [1]; [12]): 56.5 and 32 and 42 and 33 and 6 and 9 and 35 and 27 | Mean Scratch Count, Avg. (C57BL/6 mice [1]; [13]): 13.94 | Mean Scratch Count, individual animals (C57BL/6 mice [1]; [13]): 7 and 6 and 27 and 21.5 and 5 and 10.5 and 16 and 18.5 | Mean Scratch Count, Avg. (C57BL/6 mice [1]; [14]): 5.19 | Mean Scratch Count, individual animals (C57BL/6 mice [1]; [14]): 0 (2×) and 3 and 5 (2×) and 16.5 and 8 and 4 | Mean Scratch Count, Avg. (C57BL/6 mice [1]; [15]): 3.56 | Mean Scratch Count, individual animals (C57BL/6 mice [1]; [15]): 3 and 0 (3×) and 4 and 7.5 and 1 and 13 | Mean Scratch Count, Avg. (C57BL/6 mice [1]; [16]): 6.31 | Mean Scratch Count, individual animals (C57BL/6 mice [1]; [16]): 8 and 0 (2×) and 2 and 33 and 1 (2×) and 5.5 | local site scratching behavior (C57BL mice [2]; 0.0168 μg SP ID vs PBS-injected mice, 30 minutes from injection, FIG. 2a): more frequent | scratching in mice, higher vs lower SP dose (C57BL mice [2]; 33.7 μg SP vs 0.0168 μg SP, FIG. 2b): increased scratching | Scratches, Facial, Avg. (C57BL mice [3]; [17]): 110 | Scratches, Facial, individual animals (C57BL mice [3]; [17]): 110 and 139 and 137 and 54 | Scratches, Left Side, Avg. (C57BL mice [3]; [17]): 39 | Scratches, Left Side, individual animals (C57BL mice [3]; [17]): 1 and 69 and 4 and 82 | Scratches, Other, Avg. (C57BL mice [3]; [17]): 38 | Scratches, Other, individual animals (C57BL mice [3]; [17]): 38 and 45 and 43 and 26 | Scratches, Rt. Side, Avg. (C57BL mice [3]; [17]): 12.5 | Scratches, Rt. Side, individual animals (C57BL mice [3]; [17]): 0 and 36 and 4 and 10 | Scratches, Facial, Avg. (C57BL mice [3]; SP 0.5 mM ID (Group 9)): 29.75 | Scratches, Facial, individual animals (C57BL mice [3]; SP 0.5 mM ID (Group 9)): 5 and 20 and 48 and 46 | Scratches, Left Side, Avg. (C57BL mice [3]; SP 0.5 mM ID (Group 9)): 12 | Scratches, Left Side, individual animals (C57BL mice [3]; SP 0.5 mM ID (Group 9)): 15 and 22 and 11 and 0 | Scratches, Other, Avg. (C57BL mice [3]; SP 0.5 mM ID (Group 9)): 21 | Scratches, Other, individual animals (C57BL mice [3]; SP 0.5 mM ID (Group 9)): 7 and 27 and 35 and 15 | Scratches, Rt. Side, Avg. (C57BL mice [3]; SP 0.5 mM ID (Group 9)): 16.75 | Scratches, Rt. Side, individual animals (C57BL mice [3]; SP 0.5 mM ID (Group 9)): 28 and 7 and 13 and 19 | Scratches, Avg. (C57BL/6 mice [4]; Group 11, SP 0.5 mM, 0-30 min): 87.5 | Scratches, individual animals (C57BL/6 mice [4]; Group 11, SP 0.5 mM, 0-30 min): 119 and 67 and 94.5 and 69.5 | Scratches, Avg. (C57BL/6 mice [4]; Group 11, SP 0.5 mM, 30-60 min): 8.38 | Scratches, individual animals (C57BL/6 mice [4]; Group 11, SP 0.5 mM, 30-60 min): 19.5 and 5.5 and 2.5 and 6 | Scratches, Avg. (C57BL/6 mice [4]; [18]): 53.75 | Scratches, individual animals (C57BL/6 mice [4]; [18]): 57.5 and 66 and 49 and 42.5 | Scratches, Avg. (C57BL/6 mice [4]; [19]): 28 | Scratches, individual animals (C57BL/6 mice [4]; [19]): 41.5 and 1 and 45 and 24.5 | Scratches, Avg. (C57BL/6 mice [4]; [20]): 5.75 | Scratches, individual animals (C57BL/6 mice [4]; [20]): 20 and 0 and 0.5 and 2.5 | Scratches, Avg. (C57BL/6 mice [4]; [21]): 6 | Scratches, individual animals (C57BL/6 mice [4]; [21]): 15.5 and 0 and 2.5 and 6 | Scratches, Avg. (C57BL/6 mice [4]; [22]): 0 | Scratches, individual animals (C57BL/6 mice [4]; [22]): 0 | Scratches, Avg. (C57BL/6 mice [4]; [23]): 2.38 | Scratches, individual animals (C57BL/6 mice [4]; [23]): 4 and 5.5 and 0 (2×)
